In PMC9014634 (Journal of Pharmacological Sciences, 2022):

Experiment: in vitro
Format: cell-based
Conditions: human

Compound	CC50 [µM]
C[C@]12C=CC(=O)C=C1CC[C@@H]1[C@@H]2[C@@H](O)C[C@@]2(C)[C@H]1C[C@H]1O[C@@H](C3CCCCC3)O[C@]12C(=O)CO [Cic2, desisobutyryl ciclesonide]	> 30
CC(C)C(=O)OCC(=O)[C@@]12O[C@H](C3CCCCC3)O[C@@H]1C[C@H]1[C@@H]3CCC4=CC(=O)C=C[C@]4(C)[C@H]3[C@@H](O)C[C@@]12C [Cic, Ciclesonide]	> 30
